The target of the experiment is BcRtt109-GST (Botrytis cinerea, UniProt A0A384J919). The experiment is described as follows: in vitro acetylation of BcTol1-His6, immunoblot with anti-K122ac. Type of experiment: biochemical. Conditions: 0.2 mM acetyl-CoA; acceptor BcTol1-His6; 50 mM Tris-HCl pH 8.0, 37 °C, 1 h.
Sequence of BcRtt109-GST (A0A384J919 entry or part of it): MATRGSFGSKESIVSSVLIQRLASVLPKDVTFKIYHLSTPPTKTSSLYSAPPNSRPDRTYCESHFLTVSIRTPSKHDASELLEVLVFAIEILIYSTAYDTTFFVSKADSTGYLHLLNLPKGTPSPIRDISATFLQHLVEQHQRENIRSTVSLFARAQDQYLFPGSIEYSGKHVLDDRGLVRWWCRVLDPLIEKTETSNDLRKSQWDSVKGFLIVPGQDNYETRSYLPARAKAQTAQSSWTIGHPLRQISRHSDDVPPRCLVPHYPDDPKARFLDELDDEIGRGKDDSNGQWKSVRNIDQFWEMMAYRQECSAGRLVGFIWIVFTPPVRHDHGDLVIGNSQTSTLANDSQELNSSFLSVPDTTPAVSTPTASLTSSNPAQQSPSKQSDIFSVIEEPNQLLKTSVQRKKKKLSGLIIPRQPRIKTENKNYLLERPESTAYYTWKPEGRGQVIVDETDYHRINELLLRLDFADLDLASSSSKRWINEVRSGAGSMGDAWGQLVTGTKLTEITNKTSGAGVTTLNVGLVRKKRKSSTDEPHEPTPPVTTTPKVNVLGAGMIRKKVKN

Take `CC(=O)SCCNC(=O)CCNC(=O)[C@H](O)C(C)(C)COP(=O)(O)OP(=O)(O)OC[C@H]1O[C@@H](n2cnc3c(N)ncnc32)[C@H](O)[C@@H]1OP(=O)(O)O` [acetyl-CoA]: the “in vitro acetylation of BcTol1-His6, immunoblot with anti-K122ac” value was “purified BcRtt109-GST, but not GST itself, acetylates WT BcTol1 effectively in vitro”.

Values taken from article PMC7613639, “Broad-spectrum chemicals block ROS detoxification to prevent plant fungal invasion” (Current biology : CB, 2022).
